Test results published in publication PMC12470129, “New Derivatives of 2-(Cyclohexylamino)thiazol-4(5H)-one as Strong Inhibitors of 11β-Hydroxysteroid Dehydrogenase Type 1: Synthesis, Antiproliferative and Redox-Modulating Activity” (International Journal of Molecular Sciences, 2025).
“Also recorded” adds a separate entry of the source.

Tests used:
11β-HSD1 = biological target: T1, 11β-HSD1 (Homo sapiens, UniProt P28845); assay: 11β-HSD1 inhibition assay (cortisone to cortisol, human liver microsomes, cortisol ELISA); assay type: biochemical; details: for inhibition at 10 µM: at a concentration of 10 µM; for inhibition at 10 µM / IC50: human liver microsomes; for selectivity 11β-HSD1 versus 11β-HSD2: compared on % inhibition at 10 µM, versus carbenoxolone; for IC50: unit printed in text (b17-b19)
T1 construct: human liver microsomes were used as a source of the 11β‐HSD1 enzyme; tissue XenoTech Lot No.1410013; host or cells: pooled human liver microsomes, mixed gender
Method: 11β-Hydroxysteroid dehydrogenase type 1 and type 2 inhibition assays were performed as previously described. For more details, see the Supplementary Materials.
Detailed protocols of enzyme inhibition assays
1. Inhibition of 11β‐HSD Assays […]
tetrasodium salt, phosphate buffer powder, (Sigma‐Aldrich, Poznań, Poland), Pooled human liver microsomes, mixed gender, 1 mL, 20 mg/mL Lot No.1410013 ‐ XenoTech, Cortisol Elisa Ref DkO001 Lot […]
No. L211008799 – (Cloud‐Clone Corp., Wuhan, China), PBS Lot No. H161008 (Pan Biotech, Aidenbach, […]
liver microsomes were used as a source of the 11β‐HSD1 enzyme. Standard 96‐well microplates were filled with a reagent mixture: cortisone/NADPH (20 μ l, to obtain a final concentration of 200 nM / 2 μ M), […]
water. The resulting solution (final volume 100 μ l) was incubated for 2.5 h at 37°C. To stop the reaction, 10 μl of a 100 μM solution of 18β‐glycyrrhetinic acid in PBS was added. Cortisol levels resulting from the reaction were measured using a commercially available ELISA kit.
(§1) Solvents and reagents: 18‐beta‐glycyrrhetinic acid – (Acros Organic, Geel, Belgium), cortisone, NAD cofactor, phosphate buffer powder (Sigma‐Aldrich, Poznań, Poland), Human Kidney Microsomes, […]
(§2) ‐ (DiaMetra, Spello, Italy), Enzyme‐Linked Immunosorbent Assay (ELISA) Kit for 11‐Beta‐ Hydroxysteroid Dehydrogenase Type 2 Lot No. L191113457 ‐ (Cloud‐Clone Corp., Wuhan, China), PBS Lot No. H161008 (Pan Biotech, Aidenbach, Germany). […]
(§3) kidney microsomes were used as a source of the 11β‐HSD2 enzyme. Standard 96‐well microplates were filled with a reagent mixture: cortisol/NAD+ (20 μL, to obtain a final concentration of 200 nM / 2 μM), […]
(§4) The resulting solution (final volume of 100 μL) was incubated for 2.5 h at 37°C. […]
(§5) levels were measured using a commercially available ELISA kit.
(§6) 1.3. Determination of IC50 […]
(§7) conditions described in the sections above. Analogous assays without added inhibitors were performed as controls. The IC₅₀ value, defined as the concentration of inhibitor causing a 50% reduction in cortisol or cortisone, was read directly from the graph.

11β-HSD2 = biological target: T2, 11β-HSD2 (Homo sapiens, UniProt P80365); assay: 11β-HSD2 inhibition assay (cortisol to cortisone, human kidney microsomes, cortisol ELISA); assay type: biochemical; details: at a concentration of 10 µM
T2 construct: human kidney microsomes were used as a source of the 11β‐HSD2 enzyme; tissue XenoTech Lot No. 1710160; host or cells: human kidney microsomes, mixed gender
T2 sequence (P80365 1-405): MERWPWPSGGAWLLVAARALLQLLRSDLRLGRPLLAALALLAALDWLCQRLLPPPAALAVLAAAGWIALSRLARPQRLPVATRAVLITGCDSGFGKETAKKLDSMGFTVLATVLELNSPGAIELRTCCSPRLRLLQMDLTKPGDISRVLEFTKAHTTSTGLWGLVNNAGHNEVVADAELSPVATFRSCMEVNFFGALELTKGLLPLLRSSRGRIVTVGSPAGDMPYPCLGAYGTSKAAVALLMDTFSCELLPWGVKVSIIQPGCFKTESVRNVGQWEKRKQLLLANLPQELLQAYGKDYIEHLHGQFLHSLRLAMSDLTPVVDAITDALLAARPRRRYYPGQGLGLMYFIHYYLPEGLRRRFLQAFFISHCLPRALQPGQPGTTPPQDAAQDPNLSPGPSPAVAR
Method: 11β-Hydroxysteroid dehydrogenase type 1 and type 2 inhibition assays were performed as previously described. For more details, see the Supplementary Materials. […]
as §1, §2, §3, §4, §5, §6, §7

Caco-2 cells [1] = assay: MTS assay, Caco-2; assay type: cell-based, human; details: for cell metabolic activity down-regulated to (MTS): Caco-2, 72 h, strongest effects
Method: (§8) Human fibroblast (BJ; Cat# CRL-2522), human pancreatic cancer (PANC-1; Cat# CRL-1469), human breast cancer (MDA-MB-231; Cat# HTB-26); human brain glioma cells (U-118 MG; Cat# HTB-15), human melanoma (SK-MEL-30; Cat# ACC 151) and human colon carcinoma (Caco-2; Cat# HTB-37) were purchased from ATCC (Manassas, VA, USA) or DSMZ (Braunschweig, Germany). The cell lines were routinely maintained in the medium recommended by the manufacturer—MEM, DMEM, or RPMI (Corning, New York, NY, USA) with L-glutamine, 4.5 g/L glucose, and sodium pyruvate and supplemented with 10% FBS for BJ, PANC-1, MDA-MB-231, U-118 MG, and SK-MEL-30 or 20% FBS for Caco-2. All cell lines were cultured in a humidified CO2 incubator at 37 °C. For assays, cells were seeded at a constant density of 5 × 10^3 cells/0.32 cm^2 for Caco-2, PANC-1, MDA-MB-231, U-118 MG, and SK-MEL-30 or 2 × 10^3 cells/0.32 cm^2 for BJ.
(§9) MTS assay was performed as described elsewhere. Cell lines were seeded in a 96-well plate 24 h prior to treatment. Compounds 3a–3i were tested in a 10–500 µM concentration range and treated for 72 h. Next, the MTS solution was added for 3h and incubated at 37 °C. Absorbance was measured at 590 nm and 620 nm wavelengths using a Synergy H1 microplate reader (BioTek Instruments, San Diego, CA, USA).

U-118 MG cells = assay: MTS assay, U-118 MG; assay type: cell-based, human; details: 72 h
Method: as §8, §9

Caco-2 cells [2] = assay: Intracellular redox homeostasis (ROS, RNS, GSH), Caco-2; assay type: cell-based, human; details: Caco-2, 500 µM, 72 h
Method: as §8
(§10) Based on the MTS assay, a toxic concentration of 500 µM of each compound was selected for redox analysis for all cell lines. Cell lines were seeded at the standard density in 96-well black plates. […] The signal measurement was taken with a Synergy H1 microplate reader (BioTek Instruments, CA, USA).

MDA-MB-231 cells = assay: MTS assay, MDA-MB-231; assay type: cell-based, human; details: for cell metabolic activity down-regulated to (MTS): MDA-MB-231, 72 h, strongest effects
Method: as §8, §9

SK-MEL-30 cells [3] = assay: Intracellular redox homeostasis (ROS, RNS, GSH), SK-MEL-30; assay type: cell-based, human; details: SK-MEL-30, 500 µM, 72 h
Method: as §8, §10

SK-MEL-30 cells [4] = assay: MTS assay, SK-MEL-30; assay type: cell-based, human; details: for cell metabolic activity down-regulated to (MTS): SK-MEL-30, 72 h, strongest effects
Method: as §8, §9

PANC-1 cells = assay: MTS assay, PANC-1; assay type: cell-based, human; details: PANC-1, 72 h
Method: as §8, §9

BJ cells = assay: Intracellular redox homeostasis (ROS, RNS, GSH), BJ; assay type: cell-based, human; details: 500 µM, 72 h
Method: as §8, §10

T1 sequence (P28845 whole entry): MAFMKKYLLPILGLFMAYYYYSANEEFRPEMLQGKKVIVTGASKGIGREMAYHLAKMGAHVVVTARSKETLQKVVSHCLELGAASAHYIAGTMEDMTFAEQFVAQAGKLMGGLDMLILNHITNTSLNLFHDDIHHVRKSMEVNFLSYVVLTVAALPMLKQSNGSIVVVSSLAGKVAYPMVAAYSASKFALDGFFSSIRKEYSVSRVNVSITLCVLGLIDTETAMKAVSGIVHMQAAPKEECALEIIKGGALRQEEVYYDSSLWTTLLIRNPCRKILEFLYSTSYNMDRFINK

| inhibition at 10 µM (11β-HSD1) [%] | IC50 (11β-HSD1) [nM] | inhibition at 10 µM (11β-HSD2) [%] | Compound | selectivity 11β-HSD1 versus 11β-HSD2 (11β-HSD1) | concentration at which a decrease in cell viability is observed (Caco-2 cells [1]; Caco-2, MTS, 72 h) | highest increase in proliferation (metabolic activity, MTS) (U-118 MG cells) | ROS level (Caco-2 cells [2]) | cell metabolic activity down-regulated to (MTS) (Caco-2 cells [1]) | cell metabolic activity down-regulated to (MTS) (MDA-MB-231 cells) | ROS level (SK-MEL-30 cells [3]) | cell metabolic activity down-regulated to (MTS) (SK-MEL-30 cells [4]) | highest increase in proliferation (metabolic activity, MTS) (PANC-1 cells) | change of cell viability / metabolic activity (Caco-2 cells [1]; Caco-2, MTS, 72 h, 10–500 µM) | concentration at which a decrease in cell viability / metabolic activity is observed (MDA-MB-231 cells; MDA-MB-231, MTS, 72 h) [µM] | change of cell viability / metabolic activity (MDA-MB-231 cells; MDA-MB-231, MTS, 72 h, 10–500 µM) | change of cell viability / metabolic activity (SK-MEL-30 cells [4]; SK-MEL-30, MTS, 72 h, 10–500 µM) | ROS level (BJ cells) |
| --- | --- | --- | --- | --- | --- | --- | --- | --- | --- | --- | --- | --- | --- | --- | --- | --- | --- |
| 27.5 ± 2.12 | > 10000 | 42 ± 2.5 | CC1SC(NC2CCCCC2)=NC1=O (stereo not drawn) [Compound 3a, 2-(Cyclohexylamino)-5-methylthiazol-4(5H)-one] | greater inhibitory activity towards 11β-HSD2 than 11β-HSD1 | above 200 µM | 115–134% | increase in ROS production |  |  |  |  |  |  |  |  |  |  |
| 68.5 ± 4.28 | 570 ± 60 | 38.3 ± 9.96 | CCC1SC(NC2CCCCC2)=NC1=O (stereo not drawn) [Compound 3b, 2-(Cyclohexylamino)-5-ethylthiazol-4(5H)-one] |  | above 200 µM |  | increase in ROS production | 30–54% | 30–54% | increase in ROS production |  |  |  |  |  |  |  |
| 85.7 ± 4.43 | 400 ± 5 | 47.1 ± 0.82 | CCCC1SC(NC2CCCCC2)=NC1=O (stereo not drawn) [Compound 3c, 2-(Cyclohexylamino)-5-propylthiazol-4(5H)-one] |  |  |  |  |  | 30–54% |  | 30–54% |  |  |  |  |  |  |
| 90.4 ± 2.74 | 80 ± 15 | 47 ± 1.67 | CC(C)C1SC(NC2CCCCC2)=NC1=O (stereo not drawn) [Compound 3d, 2-(Cyclohexylamino)-5-isopropylthiazol-4(5H)-one] | greater selectivity than the standard compound | above 200 µM |  |  |  |  |  | 30–54% |  |  |  |  |  |  |
| 82.6 ± 1.79 | 300 ± 50 | 38.6 ± 5.56 | CC1(C)SC(NC2CCCCC2)=NC1=O [Compound 3e, 2-(Cyclohexylamino)-5,5-dimethylthiazol-4(5H)-one] |  | above 200 µM |  |  | 30–54% |  |  |  | 115–134% |  |  |  |  |  |
| 83.8 ± 4.53 | 170 ± 35 | 40 ± 8.34 | O=C1N=C(NC2CCCCC2)SC1c1ccccc1 (stereo not drawn) [Compound 3f, 2-(Cyclohexylamino)-5-phenylthiazol-4(5H)-one] |  |  |  |  |  |  |  | 30–54% | 115–134% |  |  |  |  |  |
| 90.2 ± 1.59 | 70 ± 8 | 47.2 ± 1.17 | O=C1N=C(NC2CCCCC2)SC1c1ccc(Br)cc1 (stereo not drawn) [Compound 3g, 5-(4-Bromophenyl)-2-(cyclohexylamino)thiazol-4(5H)-one] | greater selectivity than the standard compound | 1 µM | 115–134% |  | 30–54% | 30–54% |  | 30–54% |  | vigorous inhibitory activity | 75 | vigorous inhibitory activity | vigorous inhibitory activity |  |
| 94 ± 2.35 | 40 ± 4 | 45.6 ± 5.28 | O=C1N=C(NC2CCCCC2)SC12CCCCC2 [Compound 3h, 2-(Cyclohexylamino)-1-thia-3-azaspiro [4.5]dec-2-en-4-one] | greater selectivity than the standard compound; also recorded: better activity and selectivity than carbenoxolone |  |  |  | 30–54% | 30–54% |  |  | 115–134% |  |  |  |  | increase in ROS |
| 87.3 ± 0.99 | 90 ± 16 | 51 ± 0.73 | O=C1N=C(NC2CCCCC2)SC12CCC2 [Compound 3i, 6-(Cyclohexylamino)-5-thia-7-azaspiro [3.4]oct-6-en-8-one] |  | above 200 µM | 115–134% |  | 30–54% | 30–54% |  |  |  |  |  |  |  | increase in ROS |
